Experiments:
[1] = biological target: T1, biotinylated wild-type menin and MLL-AF9 fusion protein (menin/MLL binding) (Homo sapiens, UniProt O00255); assay: Assay 1: menin/MLL binding AlphaLISA assay, wild-type menin; conditions: Table 30; column head does not say wild-type or mutated menin
T1 construct: made in house; host or cells: menin: E. coli; MLL-AF9-FLAG: HEK293 cells, used as cleared lysate
T1 sequence (O00255 1-610): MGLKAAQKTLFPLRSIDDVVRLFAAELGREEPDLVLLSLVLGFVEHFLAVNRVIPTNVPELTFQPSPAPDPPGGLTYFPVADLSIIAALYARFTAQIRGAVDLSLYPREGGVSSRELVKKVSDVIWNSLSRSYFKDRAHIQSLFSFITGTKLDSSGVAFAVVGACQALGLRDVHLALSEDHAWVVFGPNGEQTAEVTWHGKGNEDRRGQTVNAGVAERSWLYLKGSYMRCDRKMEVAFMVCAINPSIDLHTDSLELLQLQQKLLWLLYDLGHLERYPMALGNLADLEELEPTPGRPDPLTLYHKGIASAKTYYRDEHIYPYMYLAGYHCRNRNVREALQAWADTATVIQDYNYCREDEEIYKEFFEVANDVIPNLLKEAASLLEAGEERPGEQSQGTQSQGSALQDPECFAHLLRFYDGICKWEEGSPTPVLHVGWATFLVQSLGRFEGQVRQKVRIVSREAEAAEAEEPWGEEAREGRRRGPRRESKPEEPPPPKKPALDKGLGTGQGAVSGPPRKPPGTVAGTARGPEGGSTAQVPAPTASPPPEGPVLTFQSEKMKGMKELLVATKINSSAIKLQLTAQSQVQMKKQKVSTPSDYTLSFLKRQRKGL
Outline: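 Compound was preincubated 30 min at room temperature with biotinylated menin (5 nM) and MLL-AF9-FLAG lysate from HEK293 cells, pH 7.4 buffer with 5% DMSO and DTT. Bead-based Alpha signal after 60 min with streptavidin donor and anti-FLAG acceptor beads; four-parameter logistic fit gave IC50.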

[2] = test system: human acute monocytic leukemia cell line MV-4-11; assay: Assay 2: cell proliferation assay (ATP quantitation, CellTiter-Glo), MV-4-11; assay type: cell-based; conditions: Homo sapiens, MV4-11, 72 h, MV-4-11 cells
Outline: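 Read-out is CellTiter-Glo luminescence quantifying ATP. Compound exposure lasted 72 h at 37° C., 5% CO2, with 1.67×10^4 MV-4-11 cells per well in 10% FBS medium, alongside HL-60 toxicity-control cells.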

Row | IC50 [1] [nM] | EC50 [2] [nM] | SMILES
1 | < 100 | 100 to 1000 | CC(C)N(C)C(=O)c1cc(F)ccc1Oc1cncnc1N1CC2(CCN(C[C@H]3CC[C@H](NS(C)(=O)=O)CC3)CC2)C1 [Example 93, 5-fluoro-N-isopropyl-N-methyl-2-((4-(7-(((1r,4r)-4-(methylsulfonamido)cyclohexyl)methyl)-2,7-diazaspiro [3.5]nonan-2-yl)pyrimidin-5-yl)oxy)benzamide]
2 | < 100 | 100 to 1000 | CC(C)N(C)C(=O)c1cc(F)ccc1Oc1cncnc1N1CC2(CCN(C[C@H]3CC[C@H](NC(=O)OC(C)(C)C)CC3)CC2)C1 [Example 94, tert-butyl ((1r,4r)-4-((2-(5-(4-fluoro-2-(isopropyl(methyl)carbamoyl)phenoxy)pyrimidin-4-yl)-2,7-diazaspiro[3.5]nonan-7-yl)methyl)cyclohexyl) carbamate]
3 | < 100 | 100 to 1000 | COC(=O)N[C@H]1CC[C@H](CN2CCC3(CC2)CN(c2ncncc2Oc2ccc(F)cc2C(=O)N(C)C(C)C)C3)CC1 [Example 95, methyl ((1r,4r)-4-((2-(5-(4-fluoro-2-(isopropyl(methyl)carbamoyl)phenoxy)pyrimidin-4-yl)-2,7-diazaspiro[3.5]nonan-7-yl)methyl)cyclohexyl) carbamate]
4 | < 100 | 100 to 1000 | CC(C)N(C(=O)c1cc(F)ccc1Oc1cncnc1N1CC2(CCN(CC3CCC(O)CC3)CC2)C1)C(C)C (stereo not shown) [Example 98, 5-fluoro-2-((4-(7-((4-hydroxycyclohexyl)methyl)-2,7-diazaspiro[3.5]nonan-2-yl)pyrimidin-5-yl)oxy)-N,N-diisopropylbenzamide]
5 | < 100 | 100 to 1000 | CC(C)N(C(=O)c1cc(F)ccc1Oc1cncnc1N1CC2(CCN(CC3CCC(O)CC3)C2)C1)C(C)C (stereo not shown) [Example 99, 5-fluoro-2-((4-(6-((4-hydroxycyclohexyl)methyl)-2,6-diazaspiro[3.4]octan-2-yl)pyrimidin-5-yl)oxy)-N,N-diisopropylbenzamide]
6 | < 100 | < 100 | CC(C)N(C(=O)c1cc(F)ccc1Oc1cncnc1N1CC2(CCN(C[C@H]3CC[C@H](NC(=O)OC(C)(C)C)CC3)CC2)C1)C(C)C [Example 99A, tert-butyl ((1r,4r)-4-((2-(5-(2-(diisopropylcarbamoyl)-4-fluorophenoxy)pyrimidin-4-yl)-2,7-diazaspiro[3.5]nonan-7-yl)methyl)cyclohexyl)carbamate]
7 | < 100 | < 100 | CC(C)N(C(=O)c1cc(F)ccc1Oc1cncnc1N1CC2(CCN(CC(C)(C)C)C2)C1)C(C)C [Example 102, 5-fluoro-N,N-diisopropyl-2-((4-(6-neopentyl-2,6-diazaspiro[3.4]octan-2-yl)pyrimidin-5-yl)oxy)benzamide]
8 | < 100 | 100 to 1000 | CC(C)N(C(=O)c1cc(F)ccc1Oc1cncnc1N1CC2(CCN(CC3CC3)C2)C1)C(C)C [Example 103, 2-((4-(6-(cyclopropylmethyl)-2,6-diazaspiro [3.4]octan-2-yl)pyrimidin-5-yl)oxy)-5-fluoro-N,N-diisopropylbenzamide]
9 | < 100 | < 100 | CC(C)N(C(=O)c1cc(F)ccc1Oc1cncnc1N1CC2(CN(CC[C@H]3CC[C@H](NC(=O)C(C)(C)C)CC3)C2)C1)C(C)C [Example 105, 5-fluoro-N,N-diisopropyl-2-((4-(6-(2-((1r,4r)-4-pivalamidocyclo-hexyl)ethyl)-2,6-diazaspiro[3.3]heptan-2-yl)pyrimidin-5-yl)oxy)benzamide]
10 | < 100 | < 100 | CC(C)N(C(=O)c1cc(F)ccc1Oc1cncnc1N1CC2(CCN(CC3CCOCC3)C2)C1)C(C)C [Example 111, 5-fluoro-N,N-diisopropyl-2-((4-(6-((tetrahydro-2H-pyran-4-yl)methyl)-2,6-diazaspiro[3.4]octan-2-yl)pyrimidin-5-yl)oxy)benzamide]
11 | < 100 | < 100 | CC(C)N(C(=O)c1cc(F)ccc1Oc1cncnc1N1CC2(CN(CC3CCOCC3)C2)C1)C(C)C [Example 112, 5-fluoro-N,N-diisopropyl-2-((4-(6-((tetrahydro-2H-pyran-4-yl)methyl)-2,6-diazaspiro[3.3]heptan-2-yl)pyrimidin-5-yl)oxy)benzamide]
12 | < 100 | < 100 | CC(C)N(C(=O)c1cc(F)ccc1Oc1cncnc1N1CC2(CN(CC[C@H]3CC[C@H](NC(=O)OC(C)(C)C)CC3)C2)C1)C(C)C [Example 115, tert-butyl ((1r,4r)-4-(2-(6-(5-(2-(diisopropylcarbamoyl)-4-fluorophenoxy)pyrimidin-4-yl)-2,6-diazaspiro[3.3]heptan-2-yl)ethyl)cyclohexyl) carbamate]

Further lines, the molecule ahead of its results:

Row | SMILES | IC50 [1] [nM] | EC50 [2] [nM]
13 | CC(C)c1ncncc1-c1cc(F)ccc1Oc1cncnc1N1CC2(CCC(NC(C)(C)C)C2)C1 (stereo not shown) [Example 96, N-(tert-butyl)-2-(5-(4-fluoro-2-(4-isopropylpyrimidin-5-yl)phenoxy)pyrimidin-4-yl)-2-azaspiro[3.4]octan-6-amine] | < 100 | 100 to 1000
14 | CC(C)N(C(=O)c1cc(F)ccc1Oc1cncnc1N1CC2(CCN(CC3CCC4(CC3)OCCO4)CC2)C1)C(C)C [Example 100, 2-((4-(7-((1,4-dioxaspiro[4.5]decan-8-yl)methyl)-2,7-diazaspiro[3.5]nonan-2-yl)pyrimidin-5-yl)oxy)-5-fluoro-N,N-diisopropylbenzamide] | < 100 | 100 to 1000
15 | CC(C)N(C(=O)c1cc(F)ccc1Oc1cncnc1N1CC2(CCN(CC3CCOCC3)CC2)C1)C(C)C [Example 101, 5-fluoro-N,N-diisopropyl-2-((4-(7-((tetrahydro-2H-pyran-4-yl)methyl)-2,7-diazaspiro[3.5]nonan-2-yl)pyrimidin-5-yl)oxy)benzamide] | < 100 | 100 to 1000
16 | CC(C)N(C(=O)c1cc(F)ccc1Oc1cncnc1N1CC2(CCN(C3CCc4cc(C#N)ccc4C3)C2)C1)C(C)C (stereo not shown) [Example 104, 2-((4-(6-(6-cyano-1,2,3,4-tetrahydro-naphthalen-2-yl)-2,6-diazaspiro[3.4]octan-2-yl)pyrimidin-5-yl)oxy)-5-fluoro-N,N-diisopropyl-benzamide] | < 100 | < 100
17 | CCN(C(=O)C(C)C)c1cc(F)ccc1Oc1cncnc1N1CC2(CN(CC3CCCCC3)C2)C1 [Example 106, N-(2-((4-(6-(cyclohexylmethyl)-2,6-diazaspiro[3.3]heptan-2-yl)pyrimidin-5-yl)oxy)-5-fluoro-phenyl)-N-ethylisobutyramide] | < 100 | < 100
18 | CCN(C(=O)c1cc(F)ccc1Oc1cncnc1N1CCC2(CCN(Cc3ccc4c(c3)[nH]c(=O)n4C)C2)C1)C(C)C (stereo not shown) [Example 107, N-ethyl-5-fluoro-N-isopropyl-2-((4-(7-((1-methyl-2-oxo-2,3-dihydro-1H-benzo[d]imidazol-5-yl)methyl)-2,7-diazaspiro[4.4]nonan-2-yl)pyrimidin-5-yl)oxy)benzamide] | < 100 | < 100
19 | Fc1ccc(Oc2cncnc2N2CCC3(CCN(CC4CCOCC4)C3)C2)c(OC2CCCC2)c1 (stereo not shown) [Example 108, 2-(5-(2-(cyclopentyloxy)-4-fluorophenoxy)pyrimidin-4-yl)-7-((tetrahydro-2H-pyran-4-yl)methyl)-2,7-diazaspiro[4.4]nonane] | < 100 | ≥ 1000
20 | CCN(C(=O)C(C)C)c1cc(F)ccc1Oc1cncnc1N1CC2(CCN(CC3CCOCC3)CC2)C1 [Example 110, N-ethyl-N-(5-fluoro-2-((4-(7-((tetrahydro-2H-pyran-4-yl)methyl)-2,7-diazaspiro[3.5]nonan-2-yl)pyrimidin-5-yl)oxy)phenyl)iso-butyramide] | < 100 | 100 to 1000
21 | CC(C)N(C(=O)c1cc(F)ccc1Oc1cncnc1N1CC2(CCN(C(=O)Cc3ccc(C#N)cc3)C2)C1)C(C)C [Example 113, 2-((4-(6-(2-(4-cyanophenyl)acetyl)-2,6-diazaspiro[3.4]octan-2-yl)pyrimidin-5-yl)oxy)-5-fluoro-N,N-diisopropylbenzamide] | < 100 | < 100
22 | CC(C)N(C(=O)c1cc(F)ccc1Oc1cncnc1N1CC2(CCN(C3CCc4cc(F)ccc4C3)C2)C1)C(C)C (stereo not shown) [Example 114, 5-fluoro-2-((4-(6-(6-fluoro-1,2,3,4-tetrahydronaphthalen-2-yl)-2,6-diazaspiro[3.4]octan-2-yl)pyrimidin-5-yl)oxy)-N,N-diisopropylbenzamide] | < 100 | 100 to 1000
23 | CC(C)N(C(=O)c1cc(F)ccc1Oc1cncnc1N1CC2(CN(C(=O)Cc3ccc(C#N)cc3)C2)C1)C(C)C [Example 116, 2-((4-(6-(2-(4-cyanophenyl)acetyl)-2,6-diazaspiro[3.3]heptan-2-yl)pyrimidin-5-yl)oxy)-5-fluoro-N,N-diisopropylbenzamide] | < 100 | 100 to 1000

From US12312359B2 (Vitae Pharmaceuticals, LLC, priority 2016, dated 2025)
